Experiments:
Type in all cases: functional
Jurkat [1] = assay: Immunosuppressive activity in PMA and PHA activated human Jurkat cells assessed as inhibition of IL-2 level at 40 uM incubated for 48 hrs by ELISA analysis relative to control
RAW264.7 [2] = assay: Immunosuppressive activity in LPS-treated mouse RAW264.7 cells assessed as inhibition of MCP-1 level at 40 uM incubated for 24 hrs by ELISA analysis relative to control
RAW264.7 [3] = assay: Immunosuppressive activity in LPS-treated mouse RAW264.7 cells assessed as inhibition of IL-6 level at 40 uM incubated for 24 hrs by ELISA analysis relative to control
RAW264.7 [4] = assay: Immunosuppressive activity in LPS-treated mouse RAW264.7 cells assessed as inhibition of TNF-alpha level at 40 uM incubated for 24 hrs by ELISA analysis relative to control
Jurkat [5] = assay: Immunosuppressive activity in PMA and PHA activated human Jurkat cells assessed as inhibition of IL-2 level at 20 uM incubated for 48 hrs by ELISA analysis relative to control
[6] = Immunosuppressive activity in anti-CD3/CD28 stimulated C57BL/6 mouse T cell line assessed as inhibition of IFN-gamma level at 20 uM incubated for 48 hrs by ELISA analysis relative to control; conditions: C57BL/6, T-cell
RAW264.7 [7] = assay: Immunosuppressive activity in LPS-treated mouse RAW264.7 cells assessed as inhibition of IL-6 level at 20 uM incubated for 24 hrs by ELISA analysis relative to control
RAW264.7 [8] = assay: Immunosuppressive activity in LPS-treated mouse RAW264.7 cells assessed as inhibition of MCP-1 level at 1 uM incubated for 24 hrs by ELISA analysis relative to control
RAW264.7 [9] = assay: Immunosuppressive activity in LPS-treated mouse RAW264.7 cells assessed as inhibition of TNF-alpha level at 1 uM incubated for 24 hrs by ELISA analysis relative to control
[10] = Immunosuppressive activity in anti-CD3/CD28 stimulated C57BL/6 mouse T cell line assessed as inhibition of IFN-gamma level at 0.1 uM incubated for 48 hrs by ELISA analysis relative to control; conditions: C57BL/6, T-cell
Jurkat [11] = assay: Immunosuppressive activity in PMA and PHA activated human Jurkat cells assessed as inhibition of IL-2 level at 0.1 uM incubated for 48 hrs by ELISA analysis relative to control

Structure (SMILES) | inhibition at 40 µM (Jurkat [1]) [%] | inhibition at 40 µM (RAW264.7 [2]) [%] | inhibition at 40 µM (RAW264.7 [3]) [%] | inhibition at 40 µM (RAW264.7 [4]) [%] | inhibition at 20 µM [6] [%] | inhibition at 20 µM (RAW264.7 [7]) [%] | further results
CC(=O)O[C@H]1C[C@H](C)[C@H]2C(=O)C3=C([C@H](C)[C@H]21)[C@@]1(CC[C@H](C)O1)O[C@]3(C)CC[C@@H]1OC(=O)C=C1C | < 10 | 32.2 | 10.4 | 52.5 |  |  | 
CC(=O)O[C@H]1C[C@H](C)[C@H]2C(=O)C3=C(/C(=C/C(C)C)O[C@]3(C)CCc3occc3C)[C@H](C)[C@H]21 | 21.1 | 31.9 | < 10 | 24.3 |  |  | 
Cc1ccoc1CC[C@]1(C)O[C@@]2(CC(C)CCl)O[C@H]3C[C@H](C)[C@H]4C(=O)[C@@H]1[C@]2(O)[C@H](C)[C@H]43 (some centres not stated) |  |  |  |  | 67.4 | 38.6 | inhibition at 20 µM (Jurkat [5]): 33.1%
Cc1ccoc1CC[C@]1(C)O[C@@]2(CCC(C)Cl)O[C@H]3C[C@H](C)[C@H]4C(=O)[C@@H]1[C@]2(O)[C@H](C)[C@H]43 (some centres not stated) |  |  |  |  | 61.2 | 45.6 | 
C/C=C/C[C@@H](C)[C@@H](O)[C@H]1C(=O)N[C@@H](CC)C(=O)N(C)CC(=O)N(C)[C@@H](CC(C)C)C(=O)N[C@@H](C(C)C)C(=O)N(C)[C@@H](CC(C)C)C(=O)N[C@@H](C)C(=O)N[C@H](C)C(=O)N(C)[C@@H](CC(C)C)C(=O)N(C)[C@@H](CC(C)C)C(=O)N(C)[C@@H](C(C)C)C(=O)N1C [CYCLOSPORINE] |  |  |  |  |  |  | inhibition at 1 µM (RAW264.7 [8]): 66%; inhibition at 1 µM (RAW264.7 [9]): 70.8%
C[C@@H]1C[C@H]2[C@@H]3CCC4=CC(=O)C=C[C@]4(C)[C@@]3(F)[C@@H](O)C[C@]2(C)[C@@]1(O)C(=O)CO [DEXAMETHASONE] |  |  |  |  |  |  | inhibition at 0.1 µM [10]: 98.3%; inhibition at 0.1 µM (Jurkat [11]): 98.9%
